Laboratory results as given in ChEMBL document CHEMBL5441456, “ASAP - SARS-CoV-2 nsp3 macrodomain dose response” (2024).
Where “and” joins values, the source holds several entries; their conditions need not be identical. Equal entries are not always repeated.

Each molecule was assayed against Replicase polyprotein 1ab (Severe acute respiratory syndrome coronavirus 2, UniProt P0DTD1) (assay: Functional biochemical assay to identify treatments for viral infectious disease that targets SARS-COV-2 nsp3 macrodomain, whereby the mechanism of action displaces an ADP-Ribose modified peptide from the binding site. Utilizing a time-resolved fluorescence method to measure binding by reading the emitted fluorescence intensity in two wavelengths.).

| Structure (SMILES) | IC50 |
| --- | --- |
| Cc1[nH]c2ncnc(NC(=O)[C@@H](CC(F)F)C3CCC3)c2c1C | 8.19 µM and 8.22 µM |
| CC(C)[C@H](Nc1ncnc2[nH]c(-c3cnn(C)c3C#N)cc12)c1ccc2c(n1)NC(=O)CO2 | 0.101 µM and 0.095 µM |
| CC(C)[C@@H](Nc1ncnc2[nH]c(-c3cnn(CC(N)=O)c3)cc12)c1ccc2c(n1)OCCO2 | 0.242 µM and 0.068 µM and 0.134 µM |
| CN(C)C(=O)c1cccc(S(=O)(=O)Nc2cnc3[nH]ccc3c2)c1 | > 99.5 µM |
| CC(C)[C@@H](Nc1ncnc2[nH]c(-c3ccnn3C3CC3)cc12)c1ccc2c(c1)OCCO2 | 1.08 µM and 1.23 µM |
| CNC(=O)c1c[nH]c2ncnc(N[C@@H](c3ccc4c(c3)OCCO4)C(C)C)c12 | 0.728 µM and 0.692 µM |
| CC(C)[C@@H](Nc1ncnc2[nH]ccc12)c1ccc2c(c1)S(=O)(=O)N(C)CC2 | 5.76 µM and 17 µM |
| CC(C)[C@@H](Nc1ncnc2n[nH]cc12)c1cnn(C)c1 | 43.1 µM |
| CC(C)[C@@H](Nc1ncncc1Cl)c1ccc2c(c1)S(=O)(=O)CCC2 | > 99.5 µM |
| COC(=O)c1coc(-c2cc3c(N[C@@H](c4ccc5c(c4)OCCO5)C(C)C)ncnc3[nH]2)c1 | 9.28 µM and 10.7 µM and 10.1 µM |
| CC(C)[C@H](Nc1ncnc2nccnc12)c1ccc2c(c1)S(=O)(=O)CCC2 | > 99.5 µM |
| CCNC(=O)c1cc2c(NC3(c4ccc5c(c4)S(=O)(=O)CCC5)CC3)ncnc2[nH]1 | 24.6 µM |
| CCc1n[nH]cc1-c1cc2c(N[C@@H](c3ccc4c(c3)OCCO4)C(C)C)ncnc2[nH]1 | 1.19 µM and 0.961 µM |
| CC(C)[C@@H](Nc1ncnc2[nH]ccc12)c1ccc2c(n1)NC(=O)CO2 | 2.61 µM and 2.71 µM |
| CC(C)[C@@H](Nc1ncnc2[nH]c(-c3cnc(N4CC(O)C4)nc3)cc12)c1ccc2c(c1)S(=O)(=O)CCC2 | 0.094 µM and 0.068 µM and 0.116 µM |
| O=C(Nc1cnc2[nH]ncc2c1)C1CCN(c2ccc3nncn3n2)CC1 | > 124 µM |
| Cc1[nH]c2ncnc(NC(=O)c3ccc(N(C)C)nc3)c2c1C | > 99.5 µM |
| CC(C)[C@@H](Oc1cc(N)ncn1)c1ccc2c(c1)S(=O)(=O)CCC2 | 67.4 µM |
| c1nc(N[C@@H](c2ccc3c(c2)OCCO3)[C@@H]2CCN2)c2cc[nH]c2n1 | > 99.5 µM |
| CC(C)[C@@H](c1ccc2c(c1)S(=O)(=O)CCC2)n1c(=O)[nH]c2c(N)ccnc21 | > 99.5 µM |
| c1nc(N[C@@H](c2ccc3c(c2)OCCO3)C2CNC2)c2cc[nH]c2n1 | > 99.5 µM |
| CC(C)[C@@H](Nc1cc(-n2nccn2)ncn1)c1ccc2c(c1)S(=O)(=O)CCC2 | > 99.5 µM |
| O=C(O)C[C@@H](NC(=O)c1ccc(NC(=O)NC2CC2)cc1)c1cccc(F)c1 | 27.3 µM and 32.5 µM |
| CNc1cc(N[C@@H](c2ccc3c(c2)S(=O)(=O)CCC3)C(C)C)ncn1 | 6.08 µM |

| Structure (SMILES) | IC50 |
| --- | --- |
| CC(C)[C@@H](Nc1ncnc2[nH]c([C@@]3(O)CCOC3)cc12)c1ccc2c(c1)OCCO2 | 9.98 µM and 23 µM |
| COCCC1(NC(=O)c2cc3c(N[C@@H](c4ccc5c(c4)OCCO5)C(C)C)ncnc3[nH]2)CC1 | 2.84 µM and 4.42 µM |
| CC(C)[C@@H](Nc1ncnc2[nH]c(C(N)=O)cc12)c1ccc2c(c1)OCCO2 | 0.453 µM and 0.466 µM |
| CC(C)[C@H](Nc1ncnc2[nH]c(-c3cnn(CC(N)=O)c3)cc12)c1ccc2c(c1)OCCO2 | 90 µM and 93.5 µM |
| CC(C)[C@@H](Nc1ncnc2[nH]ccc12)c1ccc2c(c1)N(C)CCO2 | 27.8 µM and 31.7 µM |
| CCNC(=O)c1cc2c(N[C@@H](c3cccnc3OCC(F)(F)F)C(C)C)ncnc2[nH]1 | > 99.5 µM |
| COc1ccc([C@H](CC(=O)O)NC(=O)c2ncnc3[nH]ccc23)cc1 | 1.44 µM |
| CC(C)[C@H](Nc1cc(-n2cncn2)ncn1)c1ccc2c(c1)S(=O)(=O)CCC2 | > 99.5 µM |
| Cn1cc([C@@H](Nc2ncnc3[nH]ccc23)c2ccc(F)cc2)cn1 | > 99.5 µM |
| COCCNC(=O)c1c[nH]c2ncnc(N[C@@H](c3ccc4c(c3)S(=O)(=O)CCC4)C(C)C)c12 | 0.326 µM |
| CC(C)[C@@H](Nc1ncnc2[nH]c(C(=O)NCCC3CN(C)C3)cc12)c1ccc2c(c1)OCCO2 | 0.894 µM |
| O=C(O)C[C@H](NC(=O)c1ccc(NC(=O)NC2CC2)cc1)c1cccnc1 | 50.1 µM and 58.4 µM |
| COc1ccc([C@@H]2CN(C(=O)c3ncnc4[nH]ccc34)C[C@H]2C(=O)O)cc1 | > 99.5 µM |
| CC(C)[C@@H](NCc1ccc(-n2ccnc2)cc1)c1ccc2c(c1)OCCO2 | > 99.5 µM |
| CNc1nccc(N[C@@H](c2ccc3c(c2)S(=O)(=O)CCC3)C(C)C)n1 | > 99.5 µM |
| C[C@@H](C(=O)O)[C@H](NC(=O)c1ncnc2[nH]ccc12)c1ccc(Br)cc1 | 2.85 µM and 0.982 µM and 1.03 µM |
| COc1ccc(S(=O)(=O)Nc2cnc3[nH]ccc3c2)cc1C(N)=O | > 99.5 µM |
| CC(C)[C@@H](Nc1ncnc2[nH]c(-c3ccnc(OCCN(C)C)c3)cc12)c1ccc2c(c1)S(=O)(=O)CCC2 | 0.114 µM |
| COC(=O)C[C@@H](NC(=O)c1ncnc2[nH]ccc12)c1ccc(Br)cc1 | > 99.5 µM |
| CC(C)(C)n1cc([C@H]2N(c3ncnc4[nH]ccc34)CC23CCOCC3)cn1 | > 99.5 µM |
| O=C(O)C[C@@H](NC(=O)c1ccnc(-n2cccc2)c1)c1ccc(Br)cc1 | > 99.5 µM |
| CC(C)[C@@H](Nc1ncnc2[nH]c(-c3ccnc(C#N)c3)cc12)c1ccc2c(c1)OCCO2 | 2.09 µM and 2.22 µM |
| CC(C)[C@H](Nc1ncncc1-n1nccn1)c1ccc2c(c1)S(=O)(=O)CCC2 | > 99.5 µM |
| CC(C)[C@@H](Nc1cnc2[nH]cnc2c1)c1ccc2c(c1)S(=O)(=O)CCC2 | > 99.5 µM |

| Structure (SMILES) | IC50 |
| --- | --- |
| CC(C)[C@@H](Nc1ncnc2[nH]c(C(=O)Nc3cnccc3O)cc12)c1ccc2c(c1)OCCO2 | 9.98 µM and 17.9 µM |
| COCCn1cc(-c2cc3c(N[C@@H](c4ccc5c(c4)OCCO5)C(C)C)ncnc3[nH]2)c(C#N)n1 | 0.676 µM and 0.868 µM |
| O=C(Nc1ncnc2c(C(=O)N[C@@H](c3cccs3)C3CCCC3)csc12)NC1CC1 | > 99.5 µM |
| Cc1ncnc2c1C[C@@H](C(=O)N(C)CC[C@@H](Nc1ncnc3[nH]ccc13)C(C)C)CC2 | > 99.5 µM |
| CNc1cccc([C@@H](CC(=O)O)NC(=O)c2ncnc3[nH]ccc23)c1 | 66.3 µM and 25.7 µM |
| CC(C)c1nc(N[C@@H](c2ccc3c(c2)OCCO3)C(C)C)c2cc[nH]c2n1 | > 99.5 µM |
| CC(C)[C@H](Nc1ncnc2n[nH]cc12)c1ccc2c(c1)S(=O)(=O)CCC2 | 1.56 µM and 0.77 µM |
| CC(C)[C@@H](Nc1ncnc2[nH]cc(Br)c12)c1ccc2c(c1)OCCO2 | 10.1 µM and 11.8 µM |
| CNC(=O)Cn1cc(-c2cc3c(N[C@H](c4ccc5c(c4)OCCO5)C(C)C)ncnc3[nH]2)cn1 | 0.213 µM and 0.224 µM |
| CNC(=N)C[C@@H](NC(=O)c1ncnc2[nH]ccc12)c1ccc(Br)cc1 | > 99.5 µM |
| CNC(=O)c1cccc(-c2cc3c(N[C@@H](c4ccc5c(c4)OCCO5)C(C)C)ncnc3[nH]2)c1 | 0.416 µM and 0.475 µM and 0.383 µM |
| CCNC(=O)c1cc2c(N[C@@H](c3ccc4c(c3)S(=O)(=O)NCC4)C(C)C)ncnc2[nH]1 | 0.124 µM and 0.117 µM and 0.095 µM and 0.197 µM |
| COC(=O)c1c[nH]c(-c2cc3c(N[C@@H](c4ccc5c(c4)OCCO5)C(C)C)ncnc3[nH]2)c1 | 2.98 µM and 3.58 µM |
| FC(F)(F)CO[C@@H]1CCCN(c2ncnc3[nH]ccc23)C1 | > 124 µM |
| CC(C)[C@@H](Nc1ncnc2[nH]c(-c3cnn(C(C)C)c3)cc12)c1ccc2c(c1)OCCO2 | 0.757 µM and 0.962 µM and 0.864 µM |
| CC(C)[C@@H](Nc1nccc2[nH]c(=O)[nH]c12)c1ccc2c(c1)S(=O)(=O)CCC2 | > 99.5 µM |
| CC(C)[C@@H](Nc1cccc2nc[nH]c(=O)c12)c1ccc2c(c1)S(=O)(=O)CCC2 | > 99.5 µM |
| Cc1nc(C)c(CC(=O)Nc2cnc3[nH]ncc3c2)c(=O)[nH]1 | > 99.5 µM |
| CC(C)[C@@H](Nc1ncnc2[nH]c(C(=O)NCCn3cncn3)cc12)c1ccc2c(c1)OCCO2 | 1.78 µM |
| COc1c(Cl)ncnc1N[C@@H](c1ccc2c(c1)S(=O)(=O)CCC2)C(C)C | > 99.5 µM |
| CC(C)[C@H](Nc1cc(-n2nccn2)ncn1)c1ccc2c(c1)S(=O)(=O)CCC2 | > 99.5 µM |
| Cn1nc(C(=O)N2CCC(c3ccn4ncc(C(=O)N5CCCCC5)c4c3)CC2)cc1C(=O)O | 66.4 µM |
| CCc1coc(Nc2ccc([C@@H](CC(=O)O)NC(=O)c3ncnc4[nH]ccc34)cc2)n1 | 13.9 µM and 15.5 µM |
| O=C(O)C[C@@H](NC(=O)c1cc2[nH]ccc2cn1)c1ccc(Br)cc1 | 6.82 µM and 7.54 µM |

| Structure (SMILES) | IC50 |
| --- | --- |
| CC(C)[C@@H](Nc1ccnc2[nH]ncc12)c1ccc2c(c1)S(=O)(=O)CCC2 | > 99.5 µM |
| CC(C)(C)[C@H](Nc1ncnc2[nH]c(-c3cnn(CC(N)=O)c3)cc12)c1ccc2c(c1)OCCO2 | 0.122 µM |
| CCNC(=O)c1cc2c(N[C@H](c3cnc(C(=O)N(C)C)nc3)C(C)C)ncnc2[nH]1 | 47.5 µM |
| CCNC(=O)c1cc2c(NC3(c4ccc5c(c4)S(=O)(=O)CCC5)CCC3)ncnc2[nH]1 | 3.05 µM |
| O=C(c1cc(O)ccn1)N1CCC(c2ccn3ncc(C(=O)N4CCCCC4)c3c2)CC1 | > 99.5 µM |
| CC(C)[C@@H](Nc1ncnc2[nH]c(-c3ccnn3C3CCC3)cc12)c1ccc2c(c1)OCCO2 | 5.59 µM and 8.76 µM |
| CC(C)[C@H](Nc1ncnc2[nH]c(C(=O)N[C@H]3CCN(C)C3)cc12)c1ccc2c(c1)S(=O)(=O)CCC2 | 3.15 µM |
| COCc1cc(CNc2ccc([C@@H](CC(=O)O)NC(=O)c3c[nH]c4ncncc34)cc2)on1 | > 99.5 µM |
| CC(C)[C@@H](Nc1ncnc2c1cnn2C)c1ccc2c(c1)OCCO2 | > 99.5 µM |
| CC(C)[C@H](Nc1ncncc1-c1nc[nH]n1)c1ccc2c(c1)S(=O)(=O)CCC2 | > 99.5 µM |
| CNc1c[nH]c2ncnc(N[C@@H](c3ccc4c(c3)OCCO4)C(C)C)c12 | 28.9 µM |
| Cc1nnn(C)c1-c1cc2c(N[C@@H](c3ccc4c(c3)S(=O)(=O)CCC4)C(C)C)ncnc2[nH]1 | 0.414 µM and 0.419 µM |
| COC(=O)c1c[nH]c2ncnc(N[C@@H](c3ccc4c(c3)OCCO4)C(C)C)c12 | 3.11 µM and 3.49 µM |
| O=C(Nc1ncnc2c(C(=O)NC3(c4ccccc4F)CCCCC3)csc12)NC1CC1 | > 99.5 µM |
| CC(C)[C@@H](Nc1ncnc2[nH]c(-c3cnn(CC(N)=O)c3)cc12)c1ccc2c(c1)OCCO2 | 0.383 µM and 0.361 µM and 0.247 µM and 0.258 µM |
| CCn1nccc1-c1cc2c(N[C@@H](c3ccc4c(c3)OCCO4)C(C)C)ncnc2[nH]1 | 0.892 µM and 1.42 µM and 1.29 µM |
| COc1ccccc1C[C@@H](Nc1ncnc2[nH]ccc12)C(C)C | 97.5 µM |
| Cc1[nH]c2ncnc(NC(=O)c3cncnc3)c2c1C | > 99.5 µM |
| CC(C)[C@@H](Nc1ncnc2[nH]c(-c3cc4c(C#N)cccc4[nH]3)cc12)c1ccc2c(c1)OCCO2 | > 99.5 µM |
| O=C(O)[C@@H](Nc1ncnc2[nH]ccc12)c1ccc2c(c1)OCCO2 | 9.41 µM and 7.95 µM |
| CC(C)[C@@H](Nc1ncnc2[nH]ccc12)c1ccc(C(F)(F)F)cc1 | 46.2 µM and 37.2 µM |
| CC(C)[C@@H](Nc1ncnc2[nH]c(-c3cncn3C)cc12)c1ccc2c(c1)OCCO2 | 5.77 µM and 7.42 µM |
